Assays:
[1] = test system: NHDF cells; assay: Experiment 3: collagen production in NHDF cells, α,α-trehalose and saccharide derivatives with or without AA-2G; format: cell-based, human; conditions: relative to AA-2G = 100
Protocol: Based on the confirmation that α,α-trehalose has an action of enhancing the collagen production by L-ascorbic acid, it was experimented as follows to confirm whether saccharide derivatives of α,α-trehalose have such a similar action and effect. Test solutions were prepared by dissolving in D-MEM medium any one of AA-2G, hydrous crystalline α,α-trehalose, a reagent grade specimen with a purity of at least 98%, commercialized by Hayashibara Biochemical Laboratories Inc., Okayama, Japan; “HALLODEX”, a product name of a syrup of saccharide derivatives of α,α-trehalose, having a solid content of about 75% and containing, on a dry solid basis, about 53% of α-maltosyl α,α-trehalose and about 5% of other saccharide derivatives of α,α-trehalose in total, to give final concentrations of 50 μM of AA-2G and 15.0 mg/ml of saccharides. As a control, test solutions were prepared by dissolving in D-MEM medium either of the above hydrous crystalline α,α-trehalose, α-maltosyl α,α-trehalose, or syrup of saccharide derivatives of α,α-trehalose to give a final concentration of 15.0 mg/ml. The medium admixed with the syrup containing saccharide derivatives of α,α-trehalose was adjusted to give a concentration of 15.0 mg/ml of saccharide derivatives of α,α-trehalose. The culture of NHDF cells and the quantification of collagen-production level thereof were carried out similarly as in Experiment 1. The results are in Table 3, where the values are expressed with relative values in terms of the collagen production level of NHDF cells, being regarded as 100, when cultured in D-MEM medium containing AA-2G.

[2] = test system: NHDF cells; assay: Experiment 4: collagen production in NHDF cells, saccharides combined with hyaluronic acid and/or chondroitin sulfate; format: cell-based, human
Description: Influence of α,α-trehalose or a saccharide derivative thereof, or a combination use of any of these saccharides and hyaluronic acid and/or chondroitin sulfate on the collagen production by L-ascorbic acids was examined as follows. AA-2G and any one of hydrous crystalline α,α-trehalose, a reagent grade specimen commercialized by Hayashibara Biochemical Laboratories Inc., Okayama, Japan; α-maltosyl α,α-trehalose with a purity of at least 98% commercialized by Hayashibara Biochemical Laboratories Inc., Okayama, Japan; and “HALLODEX”, a product name of a syrup of saccharide derivatives of α,α-trehalose were dissolved in D-MEM medium to give final concentrations of 50 μM of AA-2G and 15.0 mg/ml of saccharides. Further, as another test solutions, those, which had been prepared similarly as in the above, were admixed with any one of hyaluronic acid, chondroitin sulfate, and a combination thereof to give respective concentrations of 1 mg/ml, 1 mg/ml, and 0.5 mg/ml of hyaluronic acid and chondroitin sulfate each. The medium supplemented with a syrup containing about 59%, d.s.b., of saccharide derivatives of α,α-trehalose was prepared to give a concentration of 15.0 mg/ml of the saccharide derivatives of α,α-trehalose contained in the syrup. The culture of NHDF cells and the quantification of collagen-production level thereof were carried out similarly as in Experiment 1. The results are in Table 4 where the values are expressed with relative values in terms of the collagen-production level of NHDF cells, being regarded as 100, when cultured in D-MEM medium containing AA-2G.

[3] = test system: flabby skin or skin wrinkles/finely-wrinkles; assay: Experiment 6: self-evaluation of lotions with AMP and/or CoQ10 on flabby skin or skin wrinkles/finely-wrinkles, three months; format: in vivo, human; conditions: lotion, 3 months
Description: Eleven women as volunteers, who had been suffering from skin wrinkles/finely-wrinkles or flabby skin, were allowed to wash their faces with any of the lotions having compositions in Table 5 three times a day for four months and then allowed to evaluate themselves about their face-skin conditions by comparing with those before use of the lotions. […] The influence of a combination use of α,α-trehalose or saccharide derivatives thereof, sodium hyaluronate and/or chondroitin sulfate, and adenosine monophosphate (may be abbreviated as “AMP”, hereinafter) and/or coenzyme Q10 (may be abbreviated as “CoQ10”, hereinafter) on the skin was examined by the following experiment. One hundred parts by weight of respective lotions were prepared by adding to fresh preparations of the same lotion with the basic composition ratio as used in Experiment 5 sodium hyaluronate, chondroitin sulfate, hydrous crystalline α,α-trehalose, a cosmetic grade specimen commercialized by Hayashibara Biochemical Laboratories Inc., Okayama, Japan, and “[…]”, a product name of a syrup having saccharide derivatives of α,α-trehalose commercialized by Hayashibara Biochemical Laboratories Inc., Okayama, Japan, AMP, and CoQ10 according to the combinations and compositions as in Table 6 below. The amounts of added saccharides are represented based on a dry solid basis. The syrup containing saccharide derivatives of α,α-trehalose was added to each lotion to give respective composition ratios as in Table 6. Any of the lotions was allowed to be used every day by 11 females who had been suffering from flabby skin or skin wrinkles/finely-wrinkles, three times a day for three months, and the results were evaluated on flabby skin or skin wrinkles/finely-wrinkles by the method similarly as in Experiment 5.

[4] = saccharide 15.0 mg/ml + 50 μM AA-2G
[5] = saccharide one part by weight + AMP 0.1 + CoQ10 0.1
[6] = saccharide one part by weight + AMP 0.2
[7] = saccharide one part by weight + CoQ10 0.2
[8] = saccharide one part by weight + sodium hyaluronate 0.1 + chondroitin sulfate 0.1 + AMP 0.1 + CoQ10 0.1
[9] = saccharide one part by weight + sodium hyaluronate 0.1 + chondroitin sulfate 0.1 + AMP 0.2
[10] = saccharide one part by weight + sodium hyaluronate 0.1 + chondroitin sulfate 0.1 + CoQ10 0.2
[11] = saccharide one part by weight + sodium hyaluronate 0.1 + chondroitin sulfate 0.1
[12] = saccharide one part by weight alone, 3 times a day

## OC[C@H]1O[C@H](O[C@H]2O[C@H](CO)[C@@H](O)[C@H](O)[C@H]2O)[C@H](O)[C@@H](O)[C@@H]1O [α,α-trehalose]
[1]; [4]
  Collagen-production level: 227
[1]; saccharide 15.0 mg/ml, AA-2G not added
  Collagen-production level: 40
[2]; [4]
  Collagen-production level: 203
[2]; saccharide 15.0 mg/ml + 50 μM AA-2G + chondroitin sulfate 1 mg/ml
  Collagen-production level: 256
[2]; saccharide 15.0 mg/ml + 50 μM AA-2G + hyaluronate and chondroitin sulfate 0.5 mg/ml each
  Collagen-production level: 344
[2]; saccharide 15.0 mg/ml + 50 μM AA-2G + sodium hyaluronate 1 mg/ml
  Collagen-production level: 276
[2]; saccharide 15.0 mg/ml alone, no AA-2G, no hyaluronate, no chondroitin sulfate
  Collagen-production level: 42
[3]; [5]
  Evaluation A (remarkably efficacious): 2 number of volunteers
  Evaluation B (efficacious): 3 number of volunteers
  Evaluation C (slightly efficacious): 5 number of volunteers
  Evaluation D (inefficacious): 1 number of volunteers
[3]; [6]
  Evaluation A (remarkably efficacious): 2 number of volunteers
  Evaluation B (efficacious): 2 number of volunteers
  Evaluation C (slightly efficacious): 6 number of volunteers
  Evaluation D (inefficacious): 1 number of volunteers
[3]; [7]
  Evaluation A (remarkably efficacious): 1 number of volunteers
  Evaluation B (efficacious): 3 number of volunteers
  Evaluation C (slightly efficacious): 6 number of volunteers
  Evaluation D (inefficacious): 1 number of volunteers
[3]; [8]
  Evaluation A (remarkably efficacious): 5 number of volunteers
  Evaluation B (efficacious): 5 number of volunteers
  Evaluation C (slightly efficacious): 1 number of volunteers
  Evaluation D (inefficacious): 0 number of volunteers
[3]; [9]
  Evaluation A (remarkably efficacious): 3 number of volunteers
  Evaluation B (efficacious): 4 number of volunteers
  Evaluation C (slightly efficacious): 4 number of volunteers
  Evaluation D (inefficacious): 0 number of volunteers
[3]; [10]
  Evaluation A (remarkably efficacious): 4 number of volunteers
  Evaluation B (efficacious): 3 number of volunteers
  Evaluation C (slightly efficacious): 4 number of volunteers
  Evaluation D (inefficacious): 0 number of volunteers
[3]; [11]
  Evaluation A (remarkably efficacious): 2 number of volunteers
  Evaluation B (efficacious): 4 number of volunteers
  Evaluation C (slightly efficacious): 4 number of volunteers
  Evaluation D (inefficacious): 1 number of volunteers
[3]; [12]
  Evaluation A (remarkably efficacious): 1 number of volunteers
  Evaluation B (efficacious): 2 number of volunteers
  Evaluation C (slightly efficacious): 6 number of volunteers
  Evaluation D (inefficacious): 2 number of volunteers
